The record followed here is patent US20020082254A1, “Compounds for treating disorders where a decreased level of plasma FFA is desired” (priority 2000, published 2002).

For experiment [1], the target named is T1, Hormone-sensitive lipase (HSL) (Homo sapiens, UniProt Q05469).
T1 sequence (Q05469 1-1076): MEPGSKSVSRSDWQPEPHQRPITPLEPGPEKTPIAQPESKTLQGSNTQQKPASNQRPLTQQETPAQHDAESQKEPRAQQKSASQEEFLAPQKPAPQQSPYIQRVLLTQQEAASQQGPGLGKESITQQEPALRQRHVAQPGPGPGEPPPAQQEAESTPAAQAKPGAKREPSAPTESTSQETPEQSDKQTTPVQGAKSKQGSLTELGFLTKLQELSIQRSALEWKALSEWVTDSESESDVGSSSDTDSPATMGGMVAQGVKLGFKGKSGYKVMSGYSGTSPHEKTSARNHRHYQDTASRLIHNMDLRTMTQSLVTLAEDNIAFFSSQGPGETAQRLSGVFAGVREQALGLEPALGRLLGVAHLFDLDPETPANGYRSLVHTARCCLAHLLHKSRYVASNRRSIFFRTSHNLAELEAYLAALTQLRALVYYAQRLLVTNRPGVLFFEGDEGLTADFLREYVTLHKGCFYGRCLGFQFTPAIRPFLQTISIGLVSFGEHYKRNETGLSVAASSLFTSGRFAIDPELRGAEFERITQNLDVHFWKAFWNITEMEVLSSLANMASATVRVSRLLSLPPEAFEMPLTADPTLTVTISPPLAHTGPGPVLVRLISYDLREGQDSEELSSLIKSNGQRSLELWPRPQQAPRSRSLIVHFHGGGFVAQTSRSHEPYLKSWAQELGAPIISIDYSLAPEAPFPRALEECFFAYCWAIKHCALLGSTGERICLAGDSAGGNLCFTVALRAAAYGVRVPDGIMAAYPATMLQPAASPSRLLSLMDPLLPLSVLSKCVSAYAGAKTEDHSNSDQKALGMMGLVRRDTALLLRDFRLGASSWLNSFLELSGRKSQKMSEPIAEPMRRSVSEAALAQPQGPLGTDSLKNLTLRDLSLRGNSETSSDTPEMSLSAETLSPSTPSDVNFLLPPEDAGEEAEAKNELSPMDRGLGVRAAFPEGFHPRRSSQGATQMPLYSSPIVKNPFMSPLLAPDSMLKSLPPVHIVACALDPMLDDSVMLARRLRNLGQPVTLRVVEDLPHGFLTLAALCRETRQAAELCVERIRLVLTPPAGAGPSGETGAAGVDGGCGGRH
The experiment is described as follows: Hormone-sensitive lipase (HSL) inhibition assay, 3H-labeled triolein or MOME substrate. In kind it is biochemical. From the text: Hormone-sensitive lipase (HSL) [classified as a triacylglycerol lipase, EC 3.1.1.3, in accordance with the Recommendations of the Nomenclature Committee of the International Union of Biochemistry and Molecular Biology (available on the World Wide Web at the following address: http://www.chem.qmw.ac.uk/iubmb/enzyme/)]
Materials. The Hormone-sensitive lipase employed was provided by Dr. Cecilia Holm of Lund University, Sweden, or produced and purified by Novo Nordisk (NN) using the reagents and protocols employed by Dr. Holm. The substrates used are: ^3H-labeled triolein (TO) from Amersham, Buckinghamshire, U.K. cat No. TRA191; 5-20 Ci/mmol dissolved in toluene, triolein (Sigma, Cat. No. T-1740) and mono-oleoyl-2-O-mono-oleylglycerol (MOME) synthesized at (NN) using the protocols provided by Dr. Cecilia Holm, Lund University, Sweden. Phosphatidyl choline (PC) and phosphatidyl inositol (PI) are from Sigma (St Luis Mo., cat. Nos. P-3556 and P-5954, respectively). All other reagents are of commercial grade and obtained from various commercial sources.
Methods. The preparation of the substrates is as follows:
TO: 30 μl PC:PI (20 mg/ml solution of PC:PI 3:1 prepared in chloroform)+128 μl cold TO+15 μl ^3H-TO
MOME: 30 μl PC:PI+100 μl cold MOME+200 μl ^3H-MOME
They are then evaporated under a gentle stream of N2 followed by 20-30 minutes in a Speedvac™ apparatus to ensure the absence of residual solvent.
The samples are prepared as follows:
Samples/controls: 78 μl PED-BSA+20 μl inhibitor (various concentrations)+2 μl HSL (undiluted 0.12 mg/ml). If no inhibitors are being tested, the reaction contains 98 μl PED-BSA+2 μl HSL.
The samples are put on ice and then sonicated as follows:
With TO as substrate, add 2 ml potassium buffer (0.1M potassium phosphate, pH 7) and then sonicate twice for 1 minute, with a 1-minute interval between cycles. Add an additional 1 ml potassium buffer and sonicate 4 times for 30 seconds, with a 30 second interval in between cycles. To finish, add 1 ml BSA 20%-in potassium buffer, mix by inversion and store on ice until use.
With MOME as substrate: add 2 ml potassium buffer and then sonicate twice for 1 minute, with a 1 minute interval between cycles. Add 1.6 ml potassium buffer and sonicate 4 times for 30 seconds, with a 30-second interval between cycles. To finish, add 0.4 ml BSA 20%-buffer, mix by inversion and store on ice until use.
The enzyme reaction is run at 37° C. The substrate mix is added to the various reactions at 10 second intervals, incubated for 30 minutes in a water bath and then stopped with 3.25 ml of a solution containing CH3OH:CHCl3:heptane (10:9:7). After the addition of 1.05 ml potassium buffer pH10.5, the sample is vortexed thoroughly and centrifuged for 20 min at 2000 r.p.m. One ml of the upper phase is added to 10 ml scintillation fluid, and mixed thoroughly by shaking.
The samples are then counted, 5 min per vial, in a scintillation counter.

For the next experiment, the target named is T2, Lipoprotein lipase (LPL) (Bos taurus, UniProt P11151).
T2 construct: Dr. Gunilla Olivecrona, Umea University (gift)
T2 sequence (P11151 29-478): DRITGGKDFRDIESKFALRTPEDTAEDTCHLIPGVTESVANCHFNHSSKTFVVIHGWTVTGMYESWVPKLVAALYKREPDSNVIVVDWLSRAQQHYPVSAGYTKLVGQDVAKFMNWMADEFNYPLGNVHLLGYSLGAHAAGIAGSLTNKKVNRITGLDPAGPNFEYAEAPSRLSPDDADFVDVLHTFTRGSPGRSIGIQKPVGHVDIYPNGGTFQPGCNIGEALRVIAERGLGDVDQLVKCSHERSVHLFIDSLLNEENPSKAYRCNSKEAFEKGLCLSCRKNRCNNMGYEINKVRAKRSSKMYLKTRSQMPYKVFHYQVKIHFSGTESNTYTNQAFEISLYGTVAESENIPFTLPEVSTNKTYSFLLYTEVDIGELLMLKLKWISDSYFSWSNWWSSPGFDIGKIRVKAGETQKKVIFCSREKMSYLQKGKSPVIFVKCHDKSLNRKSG
The experiment in a line: Lipoprotein lipase (LPL) inhibition assay, 3H-triolein/intralipid substrate. It counts as biochemical. Conditions: read-out: LPL inhibition (% inh. at 50 μM). From the text:
Lipoprotein Lipase (LPL) [Classified as EC 3.1.1.34 in accordance with the Recommendations of the Nomenclature Committee of the International Union of Biochemistry and Molecular Biology (available on the World Wide Web at the following address: http://www.chem.qmw.ac.uk/iubmb/enzyme/)]
Materials. The lipoprotein lipase employed was obtained from Dr. Gunilla Olivecrona of Umea University, Sweden. ^3H-triolein (TO) from Amersham, Buckinghamshire, U.K., cat No. TRA191; 5-20 Ci/mmol dissolved in toluene. Intralipid is from Kabi-Fresenius). Apo CII was obtained from PMSF-treated plasma from overnight fasted rats. All other reagents are of commercial grade and obtained from various commercial sources.
Methods. The preparation of the substrate is as follows:
25 μl of ^3H-Triolein evaporated under a gentle stream of N2 in a 27° C. room in 4 ml chromacol glass followed by the addition of 1 ml 10% intralipid. This is mixed and sonicated on ice for 5 minutes (50% pulse mode). This can be kept for 1 week at 4° C.
100 μl assay medium (0.3M Tris-Cl, 0.2M NaCl, 0.2 mg heparin/ml and 120 mg BSA/ml (fraction V, Sigma no. 3401, pH 8.5))
All mixed in a 13×100 mm glass tube and incubated for at least 5 minutes.
2. Add 5 μl LPL (of a solution containing 500 mU/mg)
Mix and incubate for 30 minutes at 25° C.
3. The reaction is stopped with 3.25 ml of a solution containing Methanol:chloroform:heptan 10:9:7. Add 1.05 ml buffer (100 mM Boric acid, 100 mM potassium carbonate pH 10.5) and mix 10 seconds per vial.
5. Take 1 ml of the upper phase+10 ml scintillation fluid and mix
6. Scintillation count for 5 minutes per vial.

The mark [2] stands for this setting: read-out: HSL inhibition (IC50).

Where two headings read alike, the source gives them in different places. Some results are limits rather than exact numbers.

In the case of `Cc1ccccc1OC(=O)NN1CCc2ccccc2C1` [Example 9, (3,4-Dihydro-1H-isoquinolin-2-yl)-carbamic Acid o-tolyl Ester], in experiment [1] (setting [2]), the IC50 (as a rule, the point on the concentration scale where inhibition reaches its midpoint) turned out to be 1600 nM. The inhibition (in general, the drop in the measured response relative to a control, in per cent) at 50 µM on Lipoprotein lipase (LPL) amounted to 7%.

In the case of `CCCCOc1ccc(OC(=O)NN2CCc3ccccc3C2)cc1` [Example 30], in experiment [1] (setting [2]), the IC50 came out at 3800 nM. Besides, the inhibition at 50 µM at Lipoprotein lipase (LPL) was 6%.

As to `CC1c2ccccc2CCN1NC(=O)Oc1ccc(Cl)cc1` (stereo not drawn) [Example 22, (1-Methyl-3,4-dihydro-1H-isoquinolin-2-yl)-carbamic Acid 4chloro-phenyl Ester], in experiment [1] (setting [2]), the IC50 worked out at 30 nM. Further, on Lipoprotein lipase (LPL), the inhibition at 50 µM amounted to 10%.

Consider `O=C(NN1CCc2ccccc2C1)Oc1ccc(F)cc1` [Example 7], for which, in experiment [1] (setting [2]), the IC50 is 460 nM. Further, at Lipoprotein lipase (LPL), the inhibition at 50 µM is 0%.

Take `COc1ccc(OC(=O)NN2CCc3ccccc3C2)cc1` [Example 3, (3,4-Dihydro-1H-isoquinolin-2-yl)-carbamic acid 4-methoxy-phenyl Ester]: the IC50 in experiment [1] (setting [2]) amounted to 360 nM. For the same molecule, the inhibition at 50 µM at Lipoprotein lipase (LPL) turned out to be 0%.

`COC(=O)Cc1ccc(OC(=O)NN2CCc3ccccc3C2)cc1` [Example 42]: the IC50 in experiment [1] (setting [2]) was 40 nM. Also, the inhibition at 50 µM on Lipoprotein lipase (LPL) came to 6%.

As for `O=C(NN1CCc2ccccc2C1)Oc1ccc(Cc2ccccc2)cc1` [Example 27], in experiment [1], inhibition was half-maximal at 90 nM (IC50). Moreover, on Lipoprotein lipase (LPL), the inhibition at 50 µM was found to be 5%.

Turning to `CCC(C)(C)c1ccc(OC(=O)NN2CCc3ccccc3C2)cc1` [Example 31], the IC50 in experiment [1] (setting [2]) was more than 10000 nM. Also, at Lipoprotein lipase (LPL), the inhibition at 50 µM is 1%.

For `Cc1cccc(OC(=O)NN2CCc3ccccc3C2)c1` [Example 10, (3,4-Dihydro-1H-isoquinolin-2-yl)-carbamic Acid m-tolyl Ester], the IC50 in experiment [1] (setting [2]) was 670 nM. Further, the inhibition at 50 µM on Lipoprotein lipase (LPL) amounted to 5%.

For the molecule `COC(=O)c1ccc(OC(=O)NN2CCc3ccccc3C2)cc1` [Example 4, 4-(3,4-Dihydro-1H-isoquinolin-2-ylcarbamoyloxy)-benzoic Acid Methyl Ester], in experiment [1] (setting [2]), the IC50 was 9900 nM. For the same molecule, on Lipoprotein lipase (LPL), the inhibition at 50 µM worked out at 20%.

On to `COc1ccccc1OC(=O)NN1CCc2ccccc2C1` [Example 2, (3,4-Dihydro-1H-isoquinolin-2-yl)-carbamic acid 2-methoxy-phenyl Ester], for which, in experiment [1] (setting [2]), the IC50 was determined as 6400 nM. The inhibition at 50 µM on Lipoprotein lipase (LPL) is 2%.

On to `O=C(NN1CCc2ccccc2C1)Oc1c(Cl)cccc1Cl` [Example 11, (3,4-Dihydro-1H-isoquinolin-2-yl)-carbamic Acid 2.6-dichloro-phenyl Ester], for which the 50% inhibitory concentration (IC50) in experiment [1] (setting [2]) is more than 10000 nM. Besides, the inhibition at 50 µM on Lipoprotein lipase (LPL) came to 7%.

In the case of `CCc1ccc(OC(=O)NN2CCc3ccccc3C2)cc1` [Example 28], the IC50 in experiment [1] (setting [2]) is 70 nM. At Lipoprotein lipase (LPL), the inhibition at 50 µM was determined as 3%.

`CCCc1ccc(OC(=O)NN2CCc3ccccc3C2)cc1` [Example 20, (3,4-Dihydro-1H-isoquinolin-2-yl)-carbamic Acid 4-propyl-phenyl Ester]: the IC50 in experiment [1] (setting [2]) stood at 240 nM. Moreover, the inhibition at 50 µM at Lipoprotein lipase (LPL) came to 4%.

As to `CCCCCOc1ccc(OC(=O)NN2CCc3ccccc3C2)cc1` [Example 37], the IC50 in experiment [1] (setting [2]) came out at 3900 nM. Moreover, the inhibition at 50 µM at Lipoprotein lipase (LPL) was 0%.

On to `CCOC(=O)c1ccc(OC(=O)NN2CCc3ccccc3C2)cc1` [Example 35], for which the IC50 in experiment [1] (setting [2]) was more than 10000 nM. Moreover, the inhibition at 50 µM at Lipoprotein lipase (LPL) was 0%.

Turning to `O=C(NN1CCc2ccccc2C1)Oc1ccc(Oc2ccccc2)cc1` [Example 38], the IC50 in experiment [1] (setting [2]) came out at 330 nM. For the same molecule, the inhibition at 50 µM on Lipoprotein lipase (LPL) stood at 0%.

As for `COc1cc2c(cc1OC)CN(NC(=O)Oc1ccc(Cl)cc1)CC2` [Example 16, (6,7-Dimethoxy-3.4-dihydro-1H-isoquinolin-2-yl)-carbamic Acid 4-chloro-phenyl Ester], the IC50 in experiment [1] (setting [2]) came out at 1400 nM. Moreover, on Lipoprotein lipase (LPL), the inhibition at 50 µM came to 0%.
